One may read the melting point as the temperature of the solid-liquid transition. Molecule `CC(C)(C)OCCOc1cc(NC(=O)OC(C)(C)C)c(NC(=O)CC(=O)c2cccc(-n3ccnc3)c2)cc1-c1ccc(F)cc1` had a melting point of 101 °C. In the case of `CCCCOc1ccc2cc(C(C)C(=O)O)ccc2c1` (centres undefined) it was 125 to 127 °C; in that of `CC(C)(C)C(=O)Nc1ccncc1-c1noc2ccccc12`, 137 to 138 °C. As for `CC1(C)CCC(C)(C)c2cc(C(N)C(=O)NCS(=O)(=O)c3ccccc3)ccc21` (centres undefined), the figure is 175 to 176 °C. In the case of `COC1(C=CCOc2ccc3c(-c4ccc(F)cc4)c4c(cc3c2)C(=O)OC4)CCOCC1` it was 144 to 148 °C. For the molecule `CC(C)c1ccc2c(c1)c(SC(C)(C)C)c(CC(C)(C)C(=O)O)n2Cc1ccc(Cl)cc1`, the melting point is 189 to 192 °C. In turn, `Cc1cn(CC(O)(CC(C)(C)c2cccc3c2OCC3)C(F)(F)F)c(CO)c(C)c1=O` (centres undefined) displayed a melting point of 160 to 162 °C. The molecule `CN(C)CCOc1ccccc1NC(=O)c1cccc2[nH]ccc12` had a melting point of 110 °C.

For `Oc1cc2c(cc1Cl)OCO2`, the melting point was found to be 95 °C. Molecule `Oc1ccc2c(c1)C(n1cc[nH]c1=S)CCC2` (centres undefined) displayed a melting point of 195 to 196 °C.

In the case of `CCc1c(C)[nH]c2cc(OCCN(C)C)c(Cl)cc2c1=O`, the melting point lay within 227 to 230 °C.

In turn, `O=C(O)c1cc2cccc(OCC3CO3)c2o1` (centres undefined) gave a melting point of 117 to 119 °C. Turning to `C=CC(C)Nc1c(-c2c(F)cc(F)cc2F)c(Cl)nc2ncnn12` (centres undefined), the melting point stood at 101 °C. Consider `Cc1ccc(NC(=O)OCC(C)C)cc1Nc1ncc(-c2cccnc2)o1`, for which the melting point was found to be 186 °C. As for `Cc1c(CO)c(CO)c2n1Cc1c(c3ccccc3n1C)C2`, the figure is 200 to 201 °C; as for `NC(=S)NN=C(CNC(=O)C1CCCCC1)c1ccccc1`, 104 to 110 °C. `Nc1nc(-c2cc(Cl)ccc2Cl)nc(N2CCCC2)n1` came in with a melting point of 191 to 193 °C.

Molecule `CCOC(=O)c1cc(Oc2ccccc2)ccc1OC` had a melting point of 52 °C. As for `OC1CSC(Oc2ccc(-c3cccnc3Cl)nc2)C(O)C1O` (centres undefined), the figure is 203 °C; as for `O=C(O)C1=C(c2ccccc2)c2cc(Br)ccc2CO1`, 205 to 206 °C. For `COC(=O)Cn1c(C(=O)Nc2nc(-c3cc(OC)ccc3OC)c(CC3CCCCC3)s2)cc2cc(C)cc(C)c21`, the melting point lay within 89 to 92 °C. In the case of `O=C(CCBr)N1CC(c2ccccc2)c2ccccc21` (centres undefined), the melting point lay within 98 to 99 °C. Consider `COc1ccc(Cl)cc1C(=O)NCCC1CCN(S(=O)(=O)NC(=O)NC2CC2)CC1`, for which the melting point is 138 to 139 °C. Take `CNC(C)CCC1(C(N)=O)c2ccccc2-c2ccccc21` (centres undefined): the melting point lay within 178 to 180 °C. Consider `CC(C)c1ccc(C(=O)C2=C(O)C(=O)N(c3ccc(O)nn3)C2c2ccc(OC(F)(F)F)cc2)cc1` (centres undefined), for which the melting point was 255 °C.

`Cn1c([N+](=O)[O-])cnc1C1=NO[C@@H]2CCCCCC[C@@H]12` (relative stereo) returned a melting point of 106 to 109 °C.

On to `Cc1ccc(C)n1CCN1CCCC1=O`, for which the melting point is 66 to 68 °C. As for `CC1CC(=O)NN=C1c1ccc2c(c1)C(C)(C)CC(=O)N2C` (centres undefined), the figure is 238 to 241 °C; as for `O=C1CCOc2ccc(-c3ccccc3)cc21`, 74 to 75 °C; as for `N#Cc1ccc(OCc2ccccc2)cc1OCc1ccccc1`, 100 °C.

In turn, `Fc1ccc([C@]2(Cn3nc[nH]c3=S)O[C@H]2c2ccccc2Cl)c(F)c1` (racemic) came in with a melting point of 180 °C.

`Cc1ccc(S(=O)(=O)N(c2ccc(Cl)cc2C(N)=S)C(C)C)cc1` yielded a melting point of 189 to 191 °C.

On to `Cc1nc[nH]c1C(=O)Nc1ccc(-n2nc(C3CC3)cc2C(F)(F)F)cc1`, for which the melting point was 245 to 250 °C. In the case of `CCOC(=O)Cc1c(C(F)(F)F)c2ccc(O)cc2oc1=O`, the melting point was 112 to 114 °C. `CC(=NC1CCCCC1)N(C)C=Nc1ccc(C)cc1C`: the melting point fell in the range of 37 to 39 °C. `CCOC(=O)Cn1nnnc1C(=O)c1ccccc1` registered a melting point of 63 to 67 °C.

`O=[N+]([O-])c1cccc(S(=O)(=O)Nc2nncs2)c1` returned a melting point of 189 to 192 °C. In turn, `CS(=O)c1c(C#N)nn(-c2c(Cl)cc(C(F)(F)F)cc2Cl)c1NCc1cnccn1` (centres undefined) gave a melting point of 198 °C.

For the molecule `CC(Cc1c[nH]c2ccccc12)(NC(=O)OC1C2CC3CC(C2)CC1C3)C(=O)NCC(CSCC(=O)O)c1ccccc1` (centres undefined), the melting point was 78 to 93 °C. As for `O=C1OC(CCCCl)CN1c1ccccc1` (centres undefined), the figure is 76 to 79 °C; as for `CCOC(=O)c1ccc(C(=O)c2ccc(OC)cc2)cc1`, 74 to 81 °C. In the case of `O=C(O)c1ccc(OCCNC(=O)C2Cc3ccccc3N2S(=O)(=O)c2ccc(-c3cc(C(F)(F)F)ccc3Cl)cc2)cc1Cl` (centres undefined), the melting point fell in the range of 106 to 112 °C.

The molecule `Cc1nc2c(-c3cccc(N4C[C@@H](C)O[C@@H](C)C4)c3)cnn2c(N)c1-c1cccc(Cl)c1` came in with a melting point of 165 to 167 °C. On to `CN1CCC(c2c[nH]c3ccc(NC(=O)c4cccc(Cl)c4)nc23)CC1`, for which the melting point was in the range of 110 to 111 °C. In the case of `COc1cc2c(OC)nc3c4ccccc4nc(OC)c3c2cc1OC` it was 173 to 175 °C. Consider `CCOc1ccc(C2=NN(c3ccc(C(=O)N4CCN(c5ccc(C(F)(F)F)cn5)CC4)cc3)C(=O)[C@@H]3CC=CC[C@H]23)cc1OCC`, for which the melting point lay in the range of 121 to 123 °C. The molecule `COC(=O)CCc1cc(N)c(O)c(C(C)(C)C)c1` displayed a melting point of 108 to 109 °C.

`CC(C)SC1CCC(=O)N1` (centres undefined) showed a melting point of 77 to 79 °C. With `CCN(CC)C(C)CNc1ccc(NCC(C)N(CC)CC)c2c1C(=O)c1c(O)ccc(O)c1C2=O` (centres undefined), the melting point lay in the range of 126 to 128 °C. As for `CC(C)CC(C(=O)O)c1ccc(-c2ccc(C(F)(F)F)cc2)c(OCC2CC2)c1` (centres undefined), the figure is 142 to 143 °C; as for `COc1ccc(-n2nc3c(cc2=O)CCSc2sc(Br)cc2-3)cc1`, 148 to 150 °C.

`CCOC(=O)NN=C(C)c1ccccn1` showed a melting point of 113 °C. Consider `CC(=NOCC=Cc1ccccc1)C(=O)Cl`, for which the melting point fell in the range of 120 to 121 °C.

On to `COc1cc2ncc(C#N)c(Nc3ccc(F)cc3)c2cc1OC`, for which the melting point fell in the range of 282 to 285 °C. As to `Cn1cncc1C(O)(c1ccc(Cl)cc1)c1ccc2nc(NN)nc(-c3cccc(Cl)c3)c2c1` (centres undefined), the melting point is 186 °C. `CN1c2ccccc2CN(C(=O)c2ccc(C3CCCCC3)cc2)c2ccccc21` showed a melting point of 104 to 106 °C. As for `COC(=O)C(OCc1csc(-c2ccc(F)cc2)n1)C(=O)c1ccccc1` (centres undefined), the figure is 86 to 89 °C; as for `CCC1(O)CC(=O)OCc2c1cc1n(c2=O)Cc2c-1nc1ccccc1c2-c1ccccc1` (centres undefined), over 250 °C; as for `CC1NCCc2ccccc21` (centres undefined), 60 °C. `CN1CCC(C(=O)Nc2cccc(-c3ccnc4c(C(=O)c5cccs5)cnn34)c2)CC1` showed a melting point of 236 °C. Turning to `Cc1sc2ncc(C(=O)/C=C/c3ccccc3)n2c1C`, the melting point lay within 189 to 190 °C. Consider `O=C(Cn1nc(-c2ccccc2O)nc1-c1ccccc1O)NC(CO)CO`, for which the melting point fell in the range of 212 to 214 °C. As for `ICC1COc2ccccc2O1` (centres undefined), the melting point lay in the range of 38 to 40 °C. In turn, `O=C(O)Cc1ccc2oc(-c3ccc(Cl)cc3)nc2c1` had a melting point of 241 to 242 °C. As for `O=C(O)C1=Cc2cc(-c3ccc(F)cc3)ccc2OC1C(F)(F)F` (centres undefined), the figure is 207 to 210 °C; as for `Cc1cccc(C)c1N(CCCC(=O)N[C@@H](C)C(=O)O)C(=O)c1ccc(Cl)cc1`, 159 to 161 °C. Turning to `O=C(O)c1cc2[nH]c3c(O)cccc3c(=O)n2n1`, the melting point was 326 to 330 °C. Molecule `Cc1cc(C)c2c(n1)Nc1ccccc1NC2=O` came in with a melting point of 297 to 299 °C.

Turning to `O=c1c2cccnc2c(-c2cccc(Cl)c2)nn1Cc1ccsc1`, the melting point lay in the range of 165 to 166 °C. `Clc1ncc(-c2nc(Cl)nc(Cl)c2Br)c(Cl)n1` returned a melting point of 136 to 138 °C. In turn, `Cc1csc2ncc(C(C)(O)CCc3ccccc3)n12` (centres undefined) gave a melting point of 131 to 133 °C. `N#Cc1ccc2c(c1-c1c(C#N)ccc3c1OCO3)OCO2` yielded a melting point of 213 to 215 °C. Consider `CN(Cc1ccc(F)cc1)C(=O)c1cnc2c3c(ccc2c1)C(=O)C(C(=O)O)C=N3` (centres undefined), for which the melting point lay in the range of 245 to 246 °C.

In turn, `Clc1nc(N2CC3CCC(CC3)C2)nc(N2CC3CCC(CC3)C2)n1` gave a melting point of 195 to 200 °C. For `CCCc1cc2cc(OCC(=O)OCC)c(Cl)c(Cl)c2s1`, the melting point is 62 to 63 °C. On to `N#Cc1c(N2CCCCC2)cc(-c2ccc3ccc4cccc5ccc2c3c45)c2c1-c1ccccc1C2=O`, for which the melting point was in the range of 220 to 222 °C. In the case of `O=[N+]([O-])c1cnn2c(-c3ccccc3C(F)(F)F)ccnc12` it was 195 to 197 °C; in that of `CNC(=NC#N)NCCCCCc1csc(NC(=N)N)n1`, 109 to 113 °C; in that of `O=C(NC(=O)c1ccccc1)NC1CCCc2ccccc21` (centres undefined), 166 to 169 °C. As for `COc1cc2c(cc1OCc1ccccc1)CCCN(Cc1cc(OC)c(OC)c(OC)c1)C2`, the figure is 44 to 46 °C; as for `O=C1CCC2CCCCC2N1` (centres undefined), 123 to 126 °C. As for `CC1(C)Cc2cc(NC(N)=O)c3c(c2C(c2ccccc2)=N1)CC(C)(C)O3`, the figure is 151 to 153 °C.

With `CCOC(=O)N1CCC(CCCOc2ccc(C3=NCCCO3)cc2)CC1`, the melting point turned out to be 128 °C.

Consider `COc1cccc(C2C(=O)c3ccccc3C2=O)c1`, for which the melting point was in the range of 142 to 144 °C. In the case of `CC(C)(C)OC(=O)c1ccc(C(=O)NS(=O)(=O)c2ccc(Cl)cc2)cc1` it was over 300 °C. As for `O=C(Nc1ccc(Cl)c2c(-n3ccnc3)ccnc12)c1c(Cl)cccc1Cl`, the melting point was in the range of 259 to 263 °C. With `O=C1CCC(C=Cc2ccc(-n3ccnc3)cc2)=NN1`, the melting point was 230 to 231 °C. `CC(C)(C)C(O)(COc1ccccc1)c1cccnc1` (centres undefined): the melting point is 89 to 90.5 °C.

Turning to `C[C@@H]1O[C@](C#CC2CC2)(C(F)(F)F)c2cc(Cl)ccc2NC1=O`, the melting point was 145 to 146 °C.

Values taken from a melting point compilation (Tetko et al.; mined from patent text by program, amines drawn as free bases though some values may be those of a salt).
